Source: ChEMBL document CHEMBL1129015, “The design, binding affinity prediction and synthesis of macrocyclic angiotensin II AT1 and AT2 receptor antagonists” (Bioorg Med Chem Lett, 1996)
pIC50: −log10 of the molar value.

The compounds below were run against T1, Type-2 angiotensin II receptor (Rattus norvegicus, UniProt P35351) (assay: Inhibition of [125I]-Sar1-Ile8-Ang II binding to rat midbrain Angiotensin II receptor type 2).
T1 sequence (P35351 whole entry): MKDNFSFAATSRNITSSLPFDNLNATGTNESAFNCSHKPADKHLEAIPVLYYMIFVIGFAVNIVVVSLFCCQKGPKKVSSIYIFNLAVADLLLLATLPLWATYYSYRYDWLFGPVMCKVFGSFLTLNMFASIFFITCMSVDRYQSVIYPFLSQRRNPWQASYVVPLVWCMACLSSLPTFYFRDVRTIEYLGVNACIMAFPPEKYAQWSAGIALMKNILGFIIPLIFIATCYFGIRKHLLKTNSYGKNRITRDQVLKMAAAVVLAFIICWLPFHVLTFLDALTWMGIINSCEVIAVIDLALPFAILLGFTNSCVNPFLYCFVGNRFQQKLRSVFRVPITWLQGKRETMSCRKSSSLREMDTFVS

Compound | pIC50
CCCc1ccc2c(c1)-c1ccc(cc1)Cn1c(CCC)nc3ccc(cc3c1=O)N(C(=O)OCc1ccccc1)CCCCCCCC(=O)NS2(=O)=O | 7.70
CCCc1nc2ccc3cc2c(=O)n1Cc1ccc(cc1)-c1ccccc1S(=O)(=O)NC(=O)CCCCCCCN3 | 6.70
CCCc1nc2ccc(NC(=O)NC(C)C)cc2c(=O)n1Cc1ccc(-c2ccccc2S(=O)(=O)NC(C)=O)cc1 | 6.20
CCCc1nc2ccc3cc2c(=O)n1Cc1ccc(cc1)-c1ccccc1S(=O)(=O)NC(=O)CCCCCCCN3C(=O)c1ccccc1 | 7.31
CCCc1ccc2c(c1)-c1ccc(cc1)Cn1c(CCC)nc3ccc(cc3c1=O)NCCCCCCCC(=O)NS2(=O)=O | 7.62
CCCc1nc2ccc3cc2c(=O)n1Cc1ccc(cc1)-c1ccccc1S(=O)(=O)NC(=O)CCCCCCCN3C(=O)OCc1ccccc1 | 7.12
CCCCCN(C(=O)c1ccccc1)c1ccc2nc(CCC)n(Cc3ccc(-c4ccccc4S(=O)(=O)NC(=O)c4ccccc4)cc3)c(=O)c2c1 | 6.46
CCCc1nc2ccc3cc2c(=O)n1Cc1ccc(cc1)-c1ccccc1S(=O)(=O)NC(=O)CCCCCN3C(=O)OCc1ccccc1 | 5.40
CCCc1nc2ccc(NC(=O)NC(C)C)cc2c(=O)n1Cc1ccc(-c2ccccc2S(=O)(=O)NC(=O)c2ccccc2)cc1 | 7.74
CCCc1nc2ccc(NC(=O)c3ccccc3)cc2c(=O)n1Cc1ccc(-c2ccccc2-c2nnn[nH]2)cc1 | 5.52

The compounds below were run against T2, Type-1 angiotensin II receptor (Oryctolagus cuniculus, UniProt P34976) (assay: Inhibition of [125I]-Sar1-Ile8-Ang II binding to Angiotensin II receptor type 1 from rabbit aorta).
T2 sequence (P34976 whole entry): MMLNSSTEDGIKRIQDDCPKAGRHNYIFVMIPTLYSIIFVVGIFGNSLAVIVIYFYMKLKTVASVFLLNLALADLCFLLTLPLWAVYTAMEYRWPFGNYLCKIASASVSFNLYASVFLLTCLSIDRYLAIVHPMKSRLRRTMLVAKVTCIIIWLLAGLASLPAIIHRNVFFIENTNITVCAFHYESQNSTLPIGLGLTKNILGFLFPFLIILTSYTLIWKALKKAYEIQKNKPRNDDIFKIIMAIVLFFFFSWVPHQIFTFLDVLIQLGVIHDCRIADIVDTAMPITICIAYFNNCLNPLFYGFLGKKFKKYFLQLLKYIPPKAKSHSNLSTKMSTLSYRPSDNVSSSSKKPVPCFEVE

Compound | pIC50
CCCc1ccc2c(c1)-c1ccc(cc1)Cn1c(CCC)nc3ccc(cc3c1=O)N(C(=O)OCc1ccccc1)CCCCCCCC(=O)NS2(=O)=O | 7.52
CCCc1nc2ccc3cc2c(=O)n1Cc1ccc(cc1)-c1ccccc1S(=O)(=O)NC(=O)CCCCCCCN3 | 9.52
CCCc1nc2ccc(NC(=O)NC(C)C)cc2c(=O)n1Cc1ccc(-c2ccccc2S(=O)(=O)NC(C)=O)cc1 | 8.06
CCCc1nc2ccc3cc2c(=O)n1Cc1ccc(cc1)-c1ccccc1S(=O)(=O)NC(=O)CCCCCCCN3C(=O)c1ccccc1 | 8.89
CCCc1ccc2c(c1)-c1ccc(cc1)Cn1c(CCC)nc3ccc(cc3c1=O)NCCCCCCCC(=O)NS2(=O)=O | 8.41
CCCc1nc2ccc3cc2c(=O)n1Cc1ccc(cc1)-c1ccccc1S(=O)(=O)NC(=O)CCCCCCCN3C(=O)OCc1ccccc1 | 8.82
CCCCCN(C(=O)c1ccccc1)c1ccc2nc(CCC)n(Cc3ccc(-c4ccccc4S(=O)(=O)NC(=O)c4ccccc4)cc3)c(=O)c2c1 | 7.96
CCCc1nc2ccc3cc2c(=O)n1Cc1ccc(cc1)-c1ccccc1S(=O)(=O)NC(=O)CCCCCN3C(=O)OCc1ccccc1 | 7.64
CCCc1nc2ccc(NC(=O)NC(C)C)cc2c(=O)n1Cc1ccc(-c2ccccc2S(=O)(=O)NC(=O)c2ccccc2)cc1 | 9.05
CCCc1nc2ccc(NC(=O)c3ccccc3)cc2c(=O)n1Cc1ccc(-c2ccccc2-c2nnn[nH]2)cc1 | 9.40
